Laboratory results as given in the supplement of paper PMC4858399.

Columns and labels:
Conditions in all cases: exposure time 48 h
[1] = test system: Caenorhabditis elegans N2; test: AC50 for larval growth inhibition (Hill fit); higher = less potent
Method in brief: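 Synchronised C. elegans N2 L1 larvae, 50 per well in 96-well plates, were grown at 20°C for 48 h in K-medium with killed OP50, 1% DMSO and 0.5–200 µM chemical. Worm size was read on a COPAS Biosort as extinction, log-transformed and averaged per well, and only wells holding at least 10 worms were kept. AC50 was obtained by a constrained Hill fit using weighted genetic-algorithm regression, with out-of-range values censored.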

[2] = test system: Caenorhabditis elegans N2; test: lowest effective concentration for larval growth inhibition (size below effect threshold); higher = less potent
Method in brief: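 In 96-well plates, 50 C. elegans N2 L1 larvae per well were cultured at 20°C for 48 h in K-medium with killed bacteria and 1% DMSO, plus the chemical at 0.5, 1, 5, 10, 50, 100 or 200 µM. Size was measured as per-worm extinction on a Biosort and log-transformed into well means. Taking the first dose where the plate-adjusted mean size sits under 5.665 and stays there at higher doses gives the lowest effective concentration.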

[3] = test system: Caenorhabditis elegans N2; test: mean nematode size ln(EXT) after 48 h, plate-adjusted (DMSO control set to 6) (ln(EXT), control-adjusted); higher = larger nematodes / less growth inhibition
Method in brief: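 Chemical at 0.5–200 µM was tested on synchronised C. elegans N2 L1 larvae grown for 48 h at 20°C in K-medium with killed OP50 and 1% DMSO. Per-worm Biosort extinction, cleared of debris by a growth model, was natural-logged and averaged per well to give mean size. Plates were normalised by subtracting the vehicle control mean and adding 6.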

Row | SMILES | AC50 for larval growth inhibition [1] [µM] | lowest effective concentration [2] [µM] | mean nematode size ln(EXT) (ln) ([3]; 0.5 µM) | mean nematode size ln(EXT) (ln) ([3]; 1 µM) | mean nematode size ln(EXT) (ln) ([3]; 5 µM) | mean nematode size ln(EXT) (ln) ([3]; 10 µM) | mean nematode size ln(EXT) (ln) ([3]; 50 µM) | mean nematode size ln(EXT) (ln) ([3]; 100 µM) | mean nematode size ln(EXT) (ln) ([3]; 200 µM)
1 | CCCCCCC(CCCCCCCCCCC(=O)OCC(COC(C)=O)OC(C)=O)OC(C)=O (centres undefined) | > 200 | 50 | 5.48 | 5.6 | 5.59 | 5.69 | 5.64 | 5.58 | 5.53
2 | CCN(CC)C(=O)c1cc(S(=O)(=O)Cc2ccccc2)c(N2CCC(c3ccccc3)CC2)cc1N(CC)CCN(C)C | 72.6 | 10 | 5.74 | 5.7 | 5.67 | 5.57 | 4.82 | 4.3 | 3.47
3 | CCN(CC)CCNc1ccc(CNC=O)c2sc3ccc(OC)cc3c(=O)c12 | 107 | 10 | 5.89 | 5.87 | 5.75 | 5.65 | 5.25 | 4.73 | 3.81
4 | CCN(Cc1cccnc1)C(=O)c1cccc(Cl)c1[C@]1(C)C(=O)N(Cc2ccc(OC)cc2OC)c2ccc(Cl)cc21 | 3.78 | 10 | 5.85 | 5.78 | 5.8 | 5.4 | 5.54 | 5.37 | 5.39
5 | CCN1CCC2(CC1)COc1cc3c(cc12)N(C(=O)c1ccc(-c2ccc(-c4nnc(C)o4)cc2C)cc1)CC3 | 52.6 | 50 | 5.74 | 5.82 | 5.74 | 5.84 | 5.56 | 4.06 | 4.5
6 | CCOC(=O)O[C@H](C)OC(=O)c1ccc2c(c1)cc(C(=O)NC1CCN(C(C)C)CC1)n2Cc1cc(-c2ccc(Cl)s2)on1 | 78.2 | 50 | 5.85 | 5.86 | 5.87 | 5.76 | 4.76 | 4.59 | 3.71
7 | CCOC(=O)[C@]1(c2ccccc2)Oc2ccccc2[C@@H]1N | 56.5 | 10 | 5.84 | 5.73 | 5.71 | 5.27 | 4.94 | 5.43 | 4.03
8 | CCOc1cccc(-n2cc(C(=O)N3CCN(c4cc(C(=O)O)c5ccccc5c4)CC3)nc2-c2ccc(C)cc2)c1 | 57.9 | 50 | 5.89 | 5.86 | 5.82 | 5.84 | 4.84 | 4.42 | 3.94
9 | CC[C@H](NC(=O)c1cc(F)ccc1NS(=O)(=O)c1cccc2cccnc12)c1ccccc1 | 57.4 | 10 | 5.88 | 5.83 | 5.85 | 5.52 | 4.56 | 4.28 | 3.77
10 | CN(C)C(=O)C1(N2CCCCC2)CCN(CCC2(c3ccc(Cl)c(Cl)c3)CN(C(=O)c3ccccc3)CCO2)CC1 (centres undefined) | 119 | 50 | 5.78 | 5.82 | 5.83 | 5.77 | 5.23 | 4.76 | 4.06
11 | CN(C[C@@H](CC[N+]12CCC(C3CCCCC3)(CC1)CC2)c1ccc(Cl)c(Cl)c1)C(=O)c1cc(C(F)(F)F)cc(C(F)(F)F)c1 | 22.8 | 50 | 5.87 | 6.12 | 5.97 | 5.76 | 3.96 | 3.97 | 3.56
12 | CNCc1cc(F)ccc1Oc1ccc(Cl)c(Cl)c1 | 39.1 | 10 | 5.86 | 5.78 | 5.86 | 5.24 | 4.33 | 4.11 | 3.59
13 | CNS(=O)(=O)c1cc(C(=O)N2CCC(CCN3C4CCC3CC(n3c(C)nc5ccccc53)C4)(c3cccc(F)c3)CC2)c(Cl)cc1F (centres undefined) | > 200 | 50 | 5.68 | 5.79 | 5.77 | 5.78 | 5.62 | 5.38 | 5.41
14 | CN[C@H]1CC[C@@H](c2ccc(Cl)c(Cl)c2)c2ccc(S(N)(=O)=O)cc21 | 90.3 | 50 | 5.87 | 5.84 | 5.88 | 5.84 | 5.4 | 4.42 | 3.62
15 | COCCOc1cc2cc(C(=O)NC3CCN(C(C)C)CC3)n(CC(=O)Nc3ccc(Cl)cn3)c2cn1 | 47.5 | 50 | 5.85 | 5.84 | 5.82 | 5.77 | 4.98 | 4.13 | 5.19
16 | COc1ccc(OC(F)(F)F)cc1CN[C@H]1CCCN[C@H]1c1ccccc1 | 185 | 50 | 6.04 | 5.82 | 5.68 | 5.67 | 5.39 | 4.71 | 4.55
17 | COc1ccc2cc(S(=O)(=O)N[C@H](CC(=O)N[C@H](Cc3ccc(CN4[C@H](C)CCC[C@@H]4C)cc3)C(=O)N(C)C(C)C)c3ccc4c(c3)OCO4)ccc2c1 | > 200 | 100 | 5.87 | 5.8 | 5.85 | 5.73 | 5.76 | 5.43 | 4.99
18 | Cc1nc(-c2ccc3c(c2)CCN(CCC2CCC(NC(=O)/C=C/c4ccc(F)cc4)CC2)CC3)no1 (centres undefined) | > 200 | 100 | 5.87 | 5.83 | 5.82 | 5.86 | 5.74 | 5.6 | 5.59

Row | SMILES | AC50 for larval growth inhibition [1] [µM] | lowest effective concentration [2] [µM] | mean nematode size ln(EXT) (ln) ([3]; 0.5 µM) | mean nematode size ln(EXT) (ln) ([3]; 1 µM) | mean nematode size ln(EXT) (ln) ([3]; 5 µM) | mean nematode size ln(EXT) (ln) ([3]; 10 µM) | mean nematode size ln(EXT) (ln) ([3]; 50 µM) | mean nematode size ln(EXT) (ln) ([3]; 100 µM) | mean nematode size ln(EXT) (ln) ([3]; 200 µM)
19 | NC(=O)N1C(=O)C(C(=O)c2cc(Cl)cs2)c2cc(F)c(Cl)cc21 (centres undefined) | 1.41 | ≤ 0.5 | 5.49 | 4.96 | 4.54 | 4.37 | 4.04 | 4.02 | –
20 | NC(=O)c1nc(-c2cccc(-c3cc(F)ccc3OCC(F)(F)C(F)(F)F)c2)n[nH]1 | 50.6 | 50 | 5.73 | 5.81 | 5.71 | 5.78 | 5.53 | 4.97 | 5.09
21 | Nc1cc2c3c(c1)C(c1ccccc1)=N[C@@H](NC(=O)c1cccnc1)C(=O)N3CC2 | > 200 | 50 | 5.78 | 5.74 | 5.7 | 5.73 | 5.63 | 5.62 | 5.61
22 | O=C(N[C@@H](c1ccccc1)[C@@H]1CCCCN1)c1cccc(C(F)(F)F)c1Cl | 148 | 10 | 5.86 | 5.78 | 5.75 | 5.66 | 5.2 | 4.58 | 4.47
23 | O=C(N[C@H](c1ccccc1)[C@@H]1CN2CCC1CC2)c1c(Cl)ccc(C(F)(F)F)c1Cl | 171 | 10 | 5.84 | 5.83 | 5.78 | 5.64 | 5.61 | 5.09 | 4.34
24 | O=C(O)C1(c2ccc3c(c2)OC[C@H](Cc2ccc(-c4ccccc4)cc2)[C@H]3O)CCCC1 | 52.8 | 50 | 5.91 | 5.83 | 5.77 | 5.9 | 5.16 | 4.25 | 4.18
25 | Oc1ccc2c(c1)OC[C@@H](N1CCC(O)(c3ccc(F)cc3)CC1)[C@H]2O | 51.4 | 50 | 5.9 | 6.11 | 6.21 | 6.18 | 5.48 | 4.39 | 4.5
26 | COc1cccc([C@H](O)C2CCN(CCc3ccc(F)cc3)CC2)c1OC [Volinanserin] | – | > 200 | 5.67 | 5.79 | 5.78 | 5.95 | 5.83 | 5.8 | 5.78
27 | CN(C)C(=S)[S-].CN(C)C(=S)[S-].[Zn+2] [Ziram] | – | > 200 | 5.98 | 5.89 | 5.78 | 5.83 | 5.84 | 5.75 | 5.77
28 | CCC(C)(NC(=O)c1cc(Cl)c(C)c(Cl)c1)C(=O)CCl (centres undefined) [Zoxamide] | – | > 200 | 5.75 | 5.81 | 5.67 | 5.64 | 5.48 | 4.67 | 5.7
29 | OC[C@H]1O[C@@H]2O[C@H]3[C@H](O)[C@@H](O)[C@@H](O[C@H]4[C@H](O)[C@@H](O)[C@@H](O[C@H]5[C@H](O)[C@@H](O)[C@@H](O[C@H]6[C@H](O)[C@@H](O)[C@@H](O[C@H]7[C@H](O)[C@@H](O)[C@@H](O[C@H]1[C@H](O)[C@H]2O)O[C@@H]7CO)O[C@@H]6CO)O[C@@H]5CO)O[C@@H]4CO)O[C@@H]3CO [alpha-Cyclodextrin] | – | > 200 | 5.83 | 5.83 | 5.77 | 5.87 | 5.88 | 5.82 | 5.74
30 | ClC1C(Cl)C(Cl)C(Cl)C(Cl)C1Cl (stereo not drawn) [beta-1,2,3,4,5,6-Hexachlorocyclohexane] | – | > 200 | 5.52 | 5.63 | 5.65 | 5.7 | 5.74 | 5.75 | 5.87
31 | Cc1cc(-c2ccc(N)c(C)c2)ccc1N [o-Tolidine] | – | > 200 | 5.82 | 5.91 | 5.9 | 5.97 | 5.85 | 5.84 | 5.86
32 | COc1ccc(C)cc1N [p-Cresidine] | – | > 200 | 5.84 | 5.85 | 5.84 | 5.83 | 5.85 | 5.89 | 5.83
33 | Cc1ccc(C(C)C)cc1 [p-Cymene] | – | > 200 | 5.73 | 5.99 | 6.14 | 6.05 | 6.08 | 6.06 | 5.92
34 | CC(C)(C)OOC(=O)c1ccccc1 [tert-Butyl perbenzoate] | – | > 200 | 6.05 | 6.11 | 6.1 | 6.03 | 6 | 6.09 | 5.87
35 | CC(C)(C)c1ccccc1 [tert-Butylbenzene] | – | > 200 | 5.94 | 6.02 | 6.07 | 6.05 | 6.22 | 6.12 | 5.79
